Experimental findings from ChEMBL document CHEMBL3751730, “Synthesis and in vitro antitumor evaluation of dihydroartemisinin-cinnamic acid ester derivatives” (Eur J Med Chem, 2016) are described below.

Each structure is given as a SMILES string.

The nature of experiment [1]: Antiproliferative activity against human MDA-MB-435S cells after 72 hrs by MTT assay. The format is functional, cell-based.
The nature of experiment [2]: Antiproliferative activity against human SGC7901 cells after 72 hrs by MTT assay. The format is functional, cell-based. The settings on record: SGC-7901, 72 h.
For another experiment, the system named is A549. Description: Antiproliferative activity against human A549 cells after 72 hrs by MTT assay. The format is functional, cell-based. The note with it: A549, 72 h. For orientation: Formazan colour is commonly taken as a measure of viable cells.
The nature of experiment [3]: Antiproliferative activity against human PC3 cells after 72 hrs by MTT assay. The format is functional, cell-based. The settings on record: PC-3, 72 h.
Experiment [4] is described as follows: Cytotoxicity against human L02 cells after 72 hrs by MTT assay. It is filed as cell-based. The note with it: L02, 72 h.
The nature of experiment [5]: Selectivity index, ratio of IC50 for human L02 cells to IC50 for human A549 cells. The format is functional.

In general, IC50 refers to the concentration that inhibits the measured activity by half. Low readings indicate inhibition by little substance, high ones a need for much substance. On to `C[C@@H]1[C@H](OC(=O)/C=C/c2ccc(C(F)(F)F)cc2)C[C@H]2[C@@H](C)[C@H](OC(=O)/C=C/c3ccc(C(F)(F)F)cc3)O[C@@H]3O[C@@]4(C)CC[C@@H]1[C@]32OO4`, for which the IC50 came out at 67.7 µM in experiment [1], 39.4 µM in experiment [2], 5.08 µM with A549 and 43.5 µM in experiment [3].
In the case of `C[C@@H]1[C@H](O)C[C@H]2[C@@H](C)[C@H](OC(=O)/C=C/c3ccc([N+](=O)[O-])cc3)O[C@@H]3O[C@@]4(C)CC[C@@H]1[C@]32OO4`, the IC50 (in experiment [1]; in experiment [2]; with A549; in experiment [3]) was more than 100 µM throughout.
As for `C[C@@H]1[C@H](O)C[C@H]2[C@@H](C)[C@H](OC(=O)/C=C/c3ccc(Br)cc3)O[C@@H]3O[C@@]4(C)CC[C@@H]1[C@]32OO4`, the IC50 is 84.5 µM in experiment [1], more than 100 µM in experiment [2], more than 100 µM in the experiment on A549 and more than 100 µM in experiment [3].
As to `C[C@@H]1[C@H](O)C[C@H]2[C@@H](C)[C@H](OC(=O)CCc3ccccc3)O[C@@H]3O[C@@]4(C)CC[C@@H]1[C@]32OO4`, the IC50 (in experiment [1]; in experiment [2]; with A549; in experiment [3]) was more than 100 µM in each case.
For the compound `COc1ccc(/C=C/C(=O)O[C@@H]2O[C@@H]3O[C@@]4(C)CC[C@H]5[C@H](C)[C@H](O)C[C@@H]([C@H]2C)[C@@]35OO4)c(OC)c1OC`, the concentration for half-maximal inhibition (IC50) is 69.9 µM in experiment [1], more than 100 µM in experiment [2], 40.1 µM in the experiment on A549 and more than 100 µM in experiment [3].
Consider `COc1ccccc1/C=C/C(=O)O[C@@H]1O[C@@H]2O[C@@]3(C)CC[C@H]4[C@H](C)[C@H](OC(=O)/C=C/c5ccccc5OC)C[C@@H]([C@H]1C)[C@@]24OO3`, for which the concentration for half-maximal inhibition (IC50) in experiment [1] stood at 52.3 µM; in experiment [2], 46.4 µM; in the experiment on A549 it was 2.55 µM; in experiment [3], 11.5 µM.
For the compound `C[C@@H]1[C@H](OC(=O)/C=C/c2ccc(Br)cc2)C[C@H]2[C@@H](C)[C@H](OC(=O)/C=C/c3ccc(Br)cc3)O[C@@H]3O[C@@]4(C)CC[C@@H]1[C@]32OO4`, the IC50 in experiment [1] is more than 100 µM; in experiment [2], 35.8 µM; in the experiment with A549, 35.3 µM; in experiment [3] it was 19.7 µM.
For `C[C@@H]1[C@H](OC(=O)/C=C/c2ccc(F)cc2)C[C@H]2[C@@H](C)[C@H](OC(=O)/C=C/c3ccc(F)cc3)O[C@@H]3O[C@@]4(C)CC[C@@H]1[C@]32OO4`, the half-inhibitory concentration (IC50) (in experiment [1]; in experiment [2]; in the experiment on A549; in experiment [3]) was more than 100 µM in each case.
`C[C@@H]1[C@H](O)C[C@H]2[C@@H](C)[C@H](OC(=O)/C=C/c3ccc(C(F)(F)F)cc3)O[C@@H]3O[C@@]4(C)CC[C@@H]1[C@]32OO4`: the IC50 in experiment [1] is more than 100 µM; in experiment [2] it was 85.7 µM; with A549, more than 100 µM; in experiment [3] it was more than 100 µM.
As to `C[C@@H]1[C@H](O)C[C@H]2[C@@H](C)[C@H](OC(=O)/C=C/c3ccccc3Cl)O[C@@H]3O[C@@]4(C)CC[C@@H]1[C@]32OO4`, the IC50 (in experiment [1]; in experiment [2]; in the experiment on A549; in experiment [3]) was more than 100 µM in each case.
Take `C[C@@H]1[C@H](O)C[C@H]2[C@@H](C)[C@H](OC(=O)/C=C/c3ccccc3)O[C@@H]3O[C@@]4(C)CC[C@@H]1[C@]32OO4`: the half-inhibitory concentration (IC50) in experiment [1] was 76.3 µM; in experiment [2], more than 100 µM; with A549 it was more than 100 µM; in experiment [3], more than 100 µM.
`C[C@@H]1[C@H](OC(=O)CCc2ccccc2)C[C@H]2[C@@H](C)[C@H](OC(=O)CCc3ccccc3)O[C@@H]3O[C@@]4(C)CC[C@@H]1[C@]32OO4`: the IC50 was more than 100 µM in experiment [1], 87.8 µM in experiment [2], 43.2 µM with A549 and 20.5 µM in experiment [3].
For the compound `C[C@@H]1[C@H](OC(=O)/C=C/c2ccccc2F)C[C@H]2[C@@H](C)[C@H](OC(=O)/C=C/c3ccccc3F)O[C@@H]3O[C@@]4(C)CC[C@@H]1[C@]32OO4`, the IC50 was 18.8 µM in experiment [1], more than 100 µM in experiment [2], 4.66 µM in the experiment with A549 and 12.5 µM in experiment [3].
As for `C[C@@H]1[C@H](OC(=O)/C=C/c2cccc(Cl)c2)C[C@H]2[C@@H](C)[C@H](OC(=O)/C=C/c3cccc(Cl)c3)O[C@@H]3O[C@@]4(C)CC[C@@H]1[C@]32OO4`, the IC50 in experiment [1] was 22.4 µM; in experiment [2], 12 µM; in the experiment with A549, 2.72 µM; in experiment [3] it was 11.1 µM.
The like results for `C[C@@H]1[C@H](OC(=O)/C=C/c2c(Cl)cccc2Cl)C[C@H]2[C@@H](C)[C@H](OC(=O)/C=C/c3c(Cl)cccc3Cl)O[C@@H]3O[C@@]4(C)CC[C@@H]1[C@]32OO4` were, in that order, more than 100 µM, 60.8 µM, more than 100 µM and more than 100 µM.
Consider `COc1ccccc1/C=C/C(=O)O[C@@H]1O[C@@H]2O[C@@]3(C)CC[C@H]4[C@H](C)[C@H](O)C[C@@H]([C@H]1C)[C@@]24OO3`, for which the IC50 in experiment [1] was 74.1 µM; in experiment [2] it was more than 100 µM; in the experiment with A549 it was more than 100 µM; in experiment [3], 74.9 µM.
With `C[C@@H]1[C@H](O)C[C@H]2[C@@H](C)[C@H](OC(=O)/C=C/c3cccc(Cl)c3)O[C@@H]3O[C@@]4(C)CC[C@@H]1[C@]32OO4`, the IC50 in experiment [1] was 95.9 µM; in experiment [2], more than 100 µM; with A549 it was more than 100 µM; in experiment [3], more than 100 µM.
Take `COc1ccc(/C=C/C(=O)O[C@@H]2O[C@@H]3O[C@@]4(C)CC[C@H]5[C@H](C)[C@H](OC(=O)/C=C/c6ccc(OC)cc6)C[C@@H]([C@H]2C)[C@@]35OO4)cc1`: the 50% inhibitory concentration (IC50) came out at 41.5 µM in experiment [1], 28.3 µM in experiment [2], 7.01 µM in the experiment on A549 and 9.58 µM in experiment [3].
On to `COc1cccc(/C=C/C(=O)O[C@@H]2O[C@@H]3O[C@@]4(C)CC[C@H]5[C@H](C)[C@H](O)C[C@@H]([C@H]2C)[C@@]35OO4)c1`, for which the 50% inhibitory concentration (IC50) (in experiment [1]; in experiment [2]; in the experiment with A549; in experiment [3]) was more than 100 µM each time.
Take `COc1ccc(/C=C/C(=O)O[C@@H]2O[C@@H]3O[C@@]4(C)CC[C@H]5[C@H](C)[C@H](O)C[C@@H]([C@H]2C)[C@@]35OO4)cc1`: the IC50 in experiment [1] was 87.1 µM; in experiment [2], more than 100 µM; in the experiment with A549, more than 100 µM; in experiment [3] it was more than 100 µM.
As for `Cc1ccc(/C=C/C(=O)O[C@@H]2O[C@@H]3O[C@@]4(C)CC[C@H]5[C@H](C)[C@H](O)C[C@@H]([C@H]2C)[C@@]35OO4)cc1`, the IC50 (in experiment [1]; in experiment [2]; in the experiment on A549; in experiment [3]) was more than 100 µM in each case.
For the compound `C[C@@H]1[C@H](O)C[C@H]2[C@@H](C)[C@H](OC(=O)/C=C/c3ccccc3F)O[C@@H]3O[C@@]4(C)CC[C@@H]1[C@]32OO4`, the IC50 in experiment [1] was 47.1 µM; in experiment [2] it was more than 100 µM; in the experiment on A549, 92.7 µM; in experiment [3], 89.6 µM.
In the case of `Cc1ccc(/C=C/C(=O)O[C@@H]2O[C@@H]3O[C@@]4(C)CC[C@H]5[C@H](C)[C@H](OC(=O)/C=C/c6ccc(C)cc6)C[C@@H]([C@H]2C)[C@@]35OO4)cc1`, the IC50 in experiment [1] is more than 100 µM; in experiment [2] it was more than 100 µM; with A549 it was more than 100 µM; in experiment [3], 87.2 µM.
For `O=c1[nH]cc(F)c(=O)[nH]1` [FLUOROURACIL], the IC50 in experiment [1] was determined as 15.2 µM; in experiment [4], 25.9 µM; in experiment [2] it was 11.9 µM; in experiment [3], 42.5 µM. Besides, in experiment [5], the “Ratio IC50” value worked out at 3.83.
For `C[C@@H]1[C@H](O)C[C@H]2[C@@H](C)[C@H](OC(=O)/C=C/c3ccc(F)cc3)O[C@@H]3O[C@@]4(C)CC[C@@H]1[C@]32OO4`, the IC50 (in experiment [1]; in experiment [2]; in the experiment with A549; in experiment [3]) was more than 100 µM throughout.
With `C[C@@H]1[C@H](OC(=O)/C=C/c2ccc([N+](=O)[O-])cc2)C[C@H]2[C@@H](C)[C@H](OC(=O)/C=C/c3ccc([N+](=O)[O-])cc3)O[C@@H]3O[C@@]4(C)CC[C@@H]1[C@]32OO4`, the 50% inhibitory concentration (IC50) in experiment [1] was more than 100 µM; in experiment [2], 18.8 µM; with A549 it was more than 100 µM; in experiment [3], 10.7 µM.
For `C[C@@H]1[C@H](O)C[C@H]2[C@@H](C)[C@H](OC(=O)/C=C/c3ccc(Cl)cc3)O[C@@H]3O[C@@]4(C)CC[C@@H]1[C@]32OO4`, the IC50 in experiment [1] was 98.6 µM; in experiment [2], more than 100 µM; with A549 it was more than 100 µM; in experiment [3], more than 100 µM.
With `C[C@@H]1[C@H](OC(=O)/C=C/c2ccccc2Cl)C[C@H]2[C@@H](C)[C@H](OC(=O)/C=C/c3ccccc3Cl)O[C@@H]3O[C@@]4(C)CC[C@@H]1[C@]32OO4`, the IC50 is more than 100 µM in experiment [1], more than 100 µM in experiment [2], 96.2 µM in the experiment with A549 and 76.2 µM in experiment [3].
`COc1ccc(/C=C/C(=O)O[C@@H]2O[C@@H]3O[C@@]4(C)CC[C@H]5[C@H](C)[C@H](O)C[C@@H]([C@H]2C)[C@@]35OO4)cc1OC`: the concentration for half-maximal inhibition (IC50) is 61 µM in experiment [1], more than 100 µM in experiment [2], 28.9 µM in the experiment on A549 and more than 100 µM in experiment [3].
